Where no end group is shown, it is not given here.
Experiments:
normal skin = tested on: normal skin; parameters: species or system mice; settings: mouse, in vivo
Method: In order to test the possible tumor-promoting effect of disitertide, TPA was replaced by a treatment with a topical formulation cream containing disitertide (group 2, consisting of 5 animals) or with vehicle only (group 1, consisting of 5 mice) during the promotion phase of chemical carcinogenesis. Similarly, the possible carcinogenic activity of disitertide was analyzed in a group of 5 mice by repeated applications of disitertide every 2 days for 23 weeks. Since papillomas appear at around 7-8 weeks post-initiation, mice initiated with DMBA and promoted with TPA were further treated with disitertide every 2 days for 4 and 12 weeks (groups 5 and 6, respectively, 10 animals each), in order to test whether disitertide could prevent skin carcinogenesis. Treatment with disitertide started in the same week in which mice were initiated with DMBA (week 0), and applications with this and TPA were performed on alternate days. As a control, a group of mice (group 4, consisting of 5 animals) were treated with vehicle only (control cream) for 12 weeks. Finally, a group of animals with tumors (group 7, consisting of 10 animals) were treated with disitertide every 2 days for 20 weeks from week 12 to week 32 after initiation with DMBA. This group of mice was included in order to test a possible anti-tumor effect of the peptide. […]

[1] = tested on: skin tumors in mice initiated with DMBA; experiment: Tumor-promoting effect: TPA replaced by disitertide cream in DMBA-initiated mice; assay type: in vivo, Swiss albino mice; settings: group 2
Method: The tumors were induced on the shaved dorsal skin of mice aged 6-8 weeks through a single topical application of DMBA (32 μg in 200 μl of acetone), followed by treatment twice a week with 12.5 μg of TPA in 200 μl of acetone (10^−4 M) for 12 weeks. In addition, groups of mice were treated with a topical formulation in the form of cream that contained disitertide or not, as specified below. Each week the number of tumors bigger than 2 mm in diameter were recorded in each mouse. At the end of the experiment, the animals were anesthetized and killed (32 weeks after the initiation with DMBA), and the tumors were fixed in 10% formaldehyde and embedded in paraffin for the histological studies.
In order to test the possible tumor-promoting effect of disitertide, TPA was replaced by a treatment with a topical formulation cream containing disitertide (group 2, consisting of 5 animals) or with vehicle only (group 1, consisting of 5 mice) during the promotion phase of chemical carcinogenesis. Similarly, the possible carcinogenic activity of disitertide was analyzed in a group of 5 mice by repeated applications of disitertide every 2 days for 23 weeks. Since papillomas appear at around 7-8 weeks post-initiation, mice initiated with DMBA and promoted with TPA were further treated with disitertide every 2 days for 4 and 12 weeks (groups 5 and 6, respectively, 10 animals each), in order to test whether disitertide could prevent skin carcinogenesis. Treatment with disitertide started in the same week in which mice were initiated with DMBA (week 0), and applications with this and TPA were performed on alternate days. As a control, a group of mice (group 4, consisting of 5 animals) were treated with vehicle only (control cream) for 12 weeks. Finally, a group of animals with tumors (group 7, consisting of 10 animals) were treated with disitertide every 2 days for 20 weeks from week 12 to week 32 after initiation with DMBA. This group of mice was included in order to test a possible anti-tumor effect of the peptide. Disitertide was applied at a dose of 60 μg in 200 μl of the topical formulation as cream, except for mice of group 7 in which the dose of disitertide was increased up to 120 μg (in 400 μl of cream).

TGF-β1 = target: T1, TGF-β1 (Homo sapiens, UniProt P01137); settings: shown previously, WO 00/31135; cited from earlier work
T1 construct: host or cells: My-1-Lu cell line (so in the source)
T1 sequence (P01137 279-390 limits assumed, species assumed): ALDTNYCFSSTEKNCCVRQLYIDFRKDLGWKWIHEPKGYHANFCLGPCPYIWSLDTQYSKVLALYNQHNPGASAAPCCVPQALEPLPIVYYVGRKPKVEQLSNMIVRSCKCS

Substance: TSLDASIIWAMMQN [disitertide]
- Effect on normal skin after repeated applications (normal skin): no deleterious effect on normal skin
- Mean number of tumors per mouse at week 10 post-initiation ([1]; DMBA initiation, disitertide cream as promoter instead of TPA, 12 weeks, tumors >2 mm, week 10): 0.0
- Mean number of tumors per mouse at week 14 post-initiation ([1]; DMBA initiation, disitertide cream as promoter instead of TPA, 12 weeks, tumors >2 mm, week 14): 0.0
- Mean number of tumors per mouse at week 25 post-initiation ([1]; DMBA initiation, disitertide cream as promoter instead of TPA, 12 weeks, tumors >2 mm, week 25): 0.0
- Mean number of tumors per mouse at week 32 post-initiation ([1]; DMBA initiation, disitertide cream as promoter instead of TPA, 12 weeks, tumors >2 mm, week 32): 0.0
- Tumor induction when disitertide replaces TPA as promoter ([1]; DMBA-initiated mice promoted with disitertide cream for 12 weeks): no tumors were induced

Substance: P54: mammal homologue peptide of disitertide, SEQ ID NO: 2, amino acids 731-742 of rat type III receptor of TGF-β1 (TSLDATMIWTMM; P54 peptide)
- Capacity to act as TGF-β1 inhibitor (TGF-β1): act as TGF-β1 inhibitors
